Here are results for 18 molecules from ChEMBL document CHEMBL1131475, “Discovery of ritonavir, a potent inhibitor of HIV protease with high oral bioavailability and clinical efficacy” (J Med Chem, 1998).

Data set [1] in a line: in vivo. As to conditions: rat, plasma, po, 10 mg/kg.
Data set [2] in a line: in vivo. The settings on record: rat, plasma, po.
The nature of data set [3]: Oral bioavailability in rat. The data set is classed as ADME, organism-based. As to conditions: in vivo.
Data set [4] is described as follows: in vivo. The settings on record: rat, plasma, po. The source holds these as a separate data set.
A short description of data set [5]: in vivo. The settings on record: rat, plasma, iv.
Another data set is filed under the species Rattus norvegicus. The experiment in a line: Plasma T1/2 in rat. Type of data set: ADME, organism-based. The settings on record: in vivo.

The structures appear in SMILES notation.

The Cmax is the maximum level reached in the sampled fluid or tissue. Usually AUC stands for the area under the concentration-time curve, a measure of exposure. Lower therefore signals less exposure. The bioavailability is dose-corrected exposure relative to a reference, in per cent. High values mean good availability, low ones poor availability. What is called Tmax is the time at which the peak concentration occurs. Usually half-life stands for the time needed for the level to fall by half in the phase considered. Molecule `CC(C)c1nc(CN(C)C(=O)NC(C(=O)N[C@@H](Cc2ccccc2)C[C@H](O)[C@H](Cc2ccccc2)NC(=O)OCc2cccnc2)C(C)C)co1` (some centres undefined) registered a Cmax in the data set “in vivo [1]” of 2130 nM. The molecule further yielded an area under the curve (AUC) in the data set “in vivo [2]” of 1100 ng·h/mL. Further, the bioavailability in data set [3] worked out at 18%. The Tmax in the data set “in vivo [4]” was found to be 15 min. The molecule also showed a half-life in the data set “in vivo [5]” of 13.2 min.
On to `CC(C)C(NC(=O)OCc1ccccn1)C(=O)N[C@@H](Cc1ccccc1)[C@@H](O)C[C@H](Cc1ccccc1)NC(=O)OCc1ccoc1` (some centres undefined), for which the highest level in the data set “in vivo [1]” (Cmax) was 250 nM. In “in vivo [2]”, this molecule came in with an AUC of 230 ng·h/mL. For the same molecule, in “in vivo [4]”, the Tmax came to 16.8 min. The T1/2 result in the data set listed under Rattus norvegicus was “Not soluble”.
Taken in the same sequence, the figures for `CC(C)C(NC(=O)OCc1csc(N2CCOCC2)n1)C(=O)N[C@@H](Cc1ccccc1)C[C@H](O)[C@H](Cc1ccccc1)NC(=O)OCc1cncs1` (some centres undefined) were 170 nM, 40 ng·h/mL, 6 min and “Not soluble”.
On to `CC(C)C(NC(=O)OCc1csc(N2CCOCC2)n1)C(=O)N[C@@H](Cc1ccccc1)[C@@H](O)C[C@H](Cc1ccccc1)NC(=O)OCc1cncs1` (some centres undefined), for which the T1/2 entry in the data set filed under Rattus norvegicus was “Not soluble”.
In “in vivo [1]”, `Cc1ncsc1CCOC(=O)NC(C(=O)N[C@@H](Cc1ccccc1)C[C@H](O)[C@H](Cc1ccccc1)NC(=O)OCc1cccnc1)C(C)C` (some centres undefined) came in with a Cmax of 960 nM. In the data set “in vivo [2]”, this molecule had an exposure (AUC) of 1530 ng·h/mL. The T1/2 result in the data set listed under Rattus norvegicus is given as “Not soluble”.
For `Cc1cncc(COC(=O)NC(C(=O)N[C@@H](Cc2ccccc2)C[C@H](O)[C@H](Cc2ccccc2)NC(=O)OCc2cccnc2)C(C)C)n1` (some centres undefined), the concentration in the data set “in vivo [1]” peaked (Cmax) at 1330 nM. The area under the curve (AUC) in “in vivo [2]” amounted to 640 ng·h/mL. This molecule also returned a bioavailability in data set [3] of 10%. Also, in “in vivo [4]”, the Tmax amounted to 6 min. In “in vivo [5]”, this molecule had a half-life of 69 min.
The like results for `CC(C)C(NC(=O)OCc1nccs1)C(=O)N[C@@H](Cc1ccccc1)[C@@H](O)C[C@H](Cc1ccccc1)NC(=O)OCc1cccnc1` (some centres undefined) were, in that order, 3330 nM, 2050 ng·h/mL, 35%, 10.8 min and 32.4 min.
Taken in the same sequence, the figures for `CC(C)c1nc(CN(C(=O)NCCC(=O)N[C@@H](Cc2ccccc2)[C@@H](O)C[C@H](Cc2ccccc2)NC(=O)OCc2cncs2)C2CC2)cs1` were 650 nM, 400 ng·h/mL, 9.4%, 16.8 min and 20.4 min.
Molecule `CC(C)C(NC(=O)OCc1ccccn1)C(=O)N[C@@H](Cc1ccccc1)[C@@H](O)C[C@H](Cc1ccccc1)NC(=O)OCc1cncs1` (some centres undefined) displayed a Cmax in the data set “in vivo [1]” of 2980 nM. Moreover, the AUC in the data set “in vivo [2]” came to 1490 ng·h/mL. In addition, the time to peak (Tmax) in the data set “in vivo [4]” amounted to 8.4 min. In addition, the T1/2 entry in the data set filed under Rattus norvegicus is reported as “Not soluble”.
The molecule `CC(C)c1nc(COC(=O)NC(C(=O)N[C@@H](Cc2ccccc2)C[C@H](O)[C@H](Cc2ccccc2)NC(=O)OCc2cccnc2)C(C)C)cs1` (some centres undefined) yielded a maximum concentration (Cmax) in “in vivo [1]” of 210 nM. For the same molecule, the AUC in the data set “in vivo [2]” turned out to be 50 ng·h/mL. This molecule also showed a bioavailability in data set [3] of 1.6%. Also, the Tmax in “in vivo [4]” amounted to 6 min. The molecule further showed a half-life in “in vivo [5]” of 14.4 min.
Consider `CCN(Cc1csc(C(C)C)n1)C(=O)NC(C(=O)N[C@@H](Cc1ccccc1)C[C@H](O)[C@H](Cc1ccccc1)NC(=O)OCc1cncs1)C(C)C` (some centres undefined), for which, in the data set “in vivo [1]”, the highest level (Cmax) was 3330 nM. The AUC in “in vivo [2]” was 9850 ng·h/mL. Also, the time of peak concentration (Tmax) in the data set “in vivo [4]” worked out at 228 min. In the data set listed under Rattus norvegicus, the T1/2 entry was “Not soluble”.
The molecule `CC(C)C(NC(=O)N(C)Cc1ccccn1)C(=O)N[C@@H](Cc1ccccc1)C[C@H](O)[C@H](Cc1ccccc1)NC(=O)OCc1cncnc1` (some centres undefined) registered a Cmax in “in vivo [1]” of 910 nM. In addition, the AUC in “in vivo [2]” was 220 ng·h/mL. Further, the bioavailability in data set [3] stood at 5.1%. Moreover, the time to peak (Tmax) in the data set “in vivo [4]” turned out to be 18 min. The molecule also showed a half-life in “in vivo [5]” of 52.2 min.
For `Cc1cccc(COC(=O)NC(C(=O)N[C@@H](Cc2ccccc2)C[C@H](O)[C@H](Cc2ccccc2)NC(=O)OCc2ccoc2)C(C)C)n1` (some centres undefined), in “in vivo [1]”, the Cmax came to 160 nM. In addition, in “in vivo [2]”, the AUC was determined as 20 ng·h/mL. In addition, in the data set “in vivo [4]”, the Tmax is 8.4 min. In addition, the T1/2 entry in the data set filed under Rattus norvegicus is reported as “Not soluble”.
Turning to `CCN(Cc1csc(C(C)C)n1)C(=O)NC(C)C(=O)N[C@@H](Cc1ccccc1)C[C@H](O)[C@H](Cc1ccccc1)NC(=O)OCc1cncs1` (some centres undefined), the bioavailability in data set [3] was 0%. Besides, the T1/2 result in the data set listed under Rattus norvegicus was “Not soluble”.
Turning to `COCc1ncc(COC(=O)NC(C(=O)N[C@@H](Cc2ccccc2)C[C@H](O)[C@H](Cc2ccccc2)NC(=O)OCc2cccnc2)C(C)C)s1` (some centres undefined), the highest level in “in vivo [1]” (Cmax) was 120 nM. Moreover, the AUC in the data set “in vivo [2]” was determined as 20 ng·h/mL. Further, the bioavailability in data set [3] is 0.6%. Besides, the Tmax in the data set “in vivo [4]” was found to be 6 min. In addition, in the data set “in vivo [5]”, the half-life was 16.2 min.
In turn, `CC(C)c1nc(CCOC(=O)NC(C(=O)N[C@@H](Cc2ccccc2)[C@@H](O)C[C@H](Cc2ccccc2)NC(=O)OCc2cncs2)C(C)C)cs1` (some centres undefined) registered a bioavailability in data set [3] of 0%. In addition, the T1/2 entry in the data set listed under Rattus norvegicus is “Not soluble”.
Take `CC(C)c1nc(COC(=O)NC(C(=O)N[C@@H](Cc2ccccc2)[C@@H](O)C[C@H](Cc2ccccc2)NC(=O)OCc2cncs2)C(C)C)cs1` (some centres undefined): the bioavailability in data set [3] was 0%. Further, in the data set filed under Rattus norvegicus, the T1/2 entry was “Not soluble”.
For `CC(C)c1nc(COC(=O)NC(C(=O)N[C@@H](Cc2ccccc2)C[C@H](O)[C@H](Cc2ccccc2)NC(=O)OCc2cncs2)C(C)C)cs1` (some centres undefined), the highest concentration (Cmax) in “in vivo [1]” was determined as 40 nM. The same molecule displayed an AUC in “in vivo [2]” of 10 ng·h/mL. The Tmax in “in vivo [4]” turned out to be 6 min. For the same molecule, in the data set filed under Rattus norvegicus, the T1/2 result is recorded as “Not soluble”.
